Like-named read-outs stand apart in the source and are kept apart here.

Data set [1] relates to murine mammary adenocarcinoma MA13/C. The conditions noted are these: for highest non-toxic total dose, component alone: single agent IV, Taxotere d14, 23, flavopiridol d14-17, 20-23.
For data set [2], the system named is MA13/C.
For data set [3], the system named is mammary adenocarcinoma MA 13/C. The settings on record: for % bwl (nadir): mouse, in vivo, iv; for HNTD (DT), total dose / HNTD (highest non-toxic dose), per dose: single agent IV, days 15, 21.
Description: A product is considered to be active if log10 cell kill is greater than or equal to 0.7. A product is considered to be very active if log10 cell kill is greater than 2.8.
The animals subjected to the experiment, generally mice, are subcutaneously grafted bilaterally with 30 to 60 mg of a tumor fragment on day zero. The animals bearing tumors are mixed before being subjected to the various treatments and controls. In the case of treatment of advanced tumors, tumors are allowed to develop to the desired size, animals having insufficiently developed tumors being eliminated. The selected animals are distributed at random to undergo the treatments and controls. […] Chemotherapy generally begins from 3 to 22 days after grafting, depending on the type of tumor. The animals are observed every day. The different animal groups are weighed 3 or 4 times a week until the maximum weight loss is attained, and the groups are then weighed at least once a week until the end of the trial.
The tumors are measured 2 or 3 times a week until the tumor reaches approximately 2 g, or until the animal dies, if this occurs before the tumor reaches 2 g. The animals are autopsied after death.
The mark [4] stands for this setting: Flavo alone IV at HNTD 2.9 mg/kg/dose (total 23.2 mg/kg).
Setting [5] is: Flavopiridol alone IV 1.75 mg/kg/dose d14-17, 20-23 (total 14).
Where [6] appears, read: Flavopiridol alone IV 2.9 mg/kg/dose d14-17, 20-23 (total 23.2).
[7] abbreviates: Flavopiridol alone IV 4.8 mg/kg/dose d14-17, 20-23 (total 38.4).
[8] abbreviates: Taxotere alone IV 48.1 mg/kg/dose d14, 23 (total 96.8).

As to `CN1CC[C@H](c2c(O)cc(O)c3c(=O)cc(-c4ccccc4Cl)oc23)[C@H](O)C1` [Flavopiridol, cis-5,7-dihydroxy-2-(2-chlorophenyl)-8-[4-(3-hydroxy-1-methyl)-piperidinyl]-1-benzopyran-4-one], the activity rating result in data set [1] (setting [4]) was “inactive”. In addition, in data set [1] (setting [4]), the “log cell kill net” value is −0.4. Further, the “highest non-toxic dose (HNTD), per dose” value in data set [1] (Flavo alone IV once a day, day 14 to 17 and 20-23) stood at 2.9 mg/kg/dose. The “CR (complete response)” value in data set [1] (setting [5]) is listed as 0/6; in data set [1] (Flavopiridol alone IV 2.9 mg/kg/dose d14-17, 20-23 (total 23.2), 2.9 mg/kg), 0/6; in data set [1] (Flavopiridol alone IV 2.9 mg/kg/dose d14-17, 20-23 (total 23.2), listed as Flavo, 2.9 mg/kg), “no complete regression”; in data set [3] (Flavopiridol alone IV 6.0 mg/kg days 15, 21 (total 12.0), 6 mg/kg) it was 0/5 CR; in data set [3] (Flavopiridol alone IV 6.0 mg/kg days 15, 21 (total 12.0), listed as flavopiridol, 6 mg/kg) it was “no compete responses in the 5 mice tested”. Besides, the figures for the “lck Gross” value in data set [1] (setting [5]) and in data set [1] (setting [6]) were 0.0 and 1.0, respectively. Besides, the “% bwl (nadir)” value in data set [1] (Flavopiridol alone IV 1.75 mg/kg/dose d14-17, 20-23 (total 14), day 24) is “+10 (24) %”; in data set [1] (Flavopiridol alone IV 2.9 mg/kg/dose d14-17, 20-23 (total 23.2), nadir day 18), 3 (18) %; in data set [1] (setting [7]), over 20%; in data set [2] (mouse, in vivo, po, 2.7 mg/kg) it was 11.6%; in data set [3] (6 mg/kg), 6 (16) %. Besides, the “Comments (toxicity level of the dose)” value in data set [1] (setting [6]) is on record as “HNTD”. The “Comments: DD” value in data set [1] (setting [7]) is 4/5 DD. Besides, the “highest non-toxic total dose, component alone” value in data set [1] is recorded as 23.2 mg/kg. The “lck (log10 cell kill)” value in data set [2] (Flavopiridol alone po 2.7 mg/kg days 14-18, 21-25 (total 27)) worked out at 0.1; in data set [3] (Flavopiridol alone IV 6.0 mg/kg days 15, 21 (total 12.0)), 0.4. Further, in data set [3], the “HNTD (DT), total dose” value is given as “(12.0) mg/kg”. Moreover, the “HNTD (highest non-toxic dose), per dose” value in data set [3] is listed as 6.0 mg/kg.

Consider `CC(=O)O[C@@]12CO[C@@H]1C[C@H](O)[C@@]1(C)C(=O)[C@H](O)C3=C(C)[C@@H](OC(=O)[C@H](O)[C@@H](NC(=O)OC(C)(C)C)c4ccccc4)C[C@@](O)([C@@H](OC(=O)c4ccccc4)[C@H]21)C3(C)C` [Taxotere ®, docetaxel], for which the “CR (complete response)” value in data set [1] (setting [8]) is reported as 6/6; in data set [3] (Taxotere alone IV 30.0 mg/kg days 15, 21 (total 60.0), 30 mg/kg), 5/5 CR; in data set [3] (Taxotere alone IV 30.0 mg/kg days 15, 21 (total 60.0), listed as Taxotere®, 30 mg/kg), “complete response in all 5 of the mice”. In addition, the “Comments (toxicity level of the dose)” value in data set [1] (setting [8]) is recorded as “HNTD”; in data set [2] (mouse, in vivo, iv, 30 mg/kg), “HNTD”. For the same compound, the “lck Gross” value in data set [1] (setting [8]) came out at 4.4. For the same compound, the “% bwl (nadir)” value in data set [1] (Taxotere alone IV 48.1 mg/kg/dose d14, 23 (total 96.8), nadir day 28) is reported as 8 (28) %; in data set [1] (Taxotere alone IV 78.1 mg/kg/dose d14, 23 (total 156.2), nadir day 29), 20 (29) %; in data set [2] (mouse, in vivo, iv, 30 mg/kg), 3.6%; in data set [3] (30 mg/kg), 8 (27) %. Further, the “Comments: DD” value in data set [1] (Taxotere alone IV 78.1 mg/kg/dose d14, 23 (total 156.2)) was 2/6 DD. The “log cell kill net” value in data set [1] (docetaxel alone at HNTD 48.1 mg/kg/injection (total 96.8 mg/kg)) was found to be 3. Further, the “HNTD, per injection” value in data set [1] (docetaxel alone, days 14 and 23) is listed as 48.1 mg/kg/injection. In addition, the “highest non-toxic total dose, component alone” value in data set [1] is given as 96.8 mg/kg. Besides, the “lck (log10 cell kill)” value was 0.9 in data set [2] (Taxotere alone IV 30 mg/kg days 14, 25 (total 60)) and 4.7 in data set [3] (Taxotere alone IV 30.0 mg/kg days 15, 21 (total 60.0)). Besides, the “HNTD (DT), total dose” value is on record as “(60) mg/kg” in data set [2] (mouse, in vivo) and “(60.0) mg/kg” in data set [3]. In data set [2] (mouse, in vivo), the “HNTD, per dose” value came out at 30 mg/kg. Besides, in data set [3], the “HNTD (highest non-toxic dose), per dose” value was determined as 30.0 mg/kg.

These data come from US20060128640A1 (priority 2001, published 2006).
